Test results reported in US9763941B2, “Method of treating melanoma by administration of pharmaceutical formulations of (S)-methyl (1-((4-(3-(5-chloro-2-fluoro-3-(methylsulfonamido)phenyl)-1-isopropyl-1H-pyrazol-4-yl)pyrimidin-2-yl)amino)propan-2-yl)carbamate” (Array BioPharma, Inc., priority 2011, dated 2017).
“Also recorded” adds a separate entry of the source.

Experiment: aqueous solubility characteristics / BCS classification
Format: physicochemical
Text: Upon emptying from the stomach, COMPOUND A has the tendency to quickly precipitate out of solution due to an abrupt solubility drop in intestinal pH. […] The present invention relates to orally bioavailable pharmaceutical solid dispersion formulations of COMPOUND A.
Therapeutic compounds with such solubility characteristics typically present pharmaceutical formulation scientists with a challenge while attempting to prepare oral formulations capable of improving oral bioavailability of the therapeutic compound. Such challenges in preparing solid oral dosage forms of COMPOUND A are overcome, according to the present invention, by formulating the compound as a solid dispersion.

BCS class: BCS class II
SMILES: COC(=O)N[C@@H](C)CNc1nccc(-c2cn(C(C)C)nc2-c2cc(Cl)cc(NS(C)(=O)=O)c2F)n1 [COMPOUND A, (S)-methyl (1-((4-(3-(5-chloro-2-fluoro-3-(methylsulfonamido)phenyl)-1-isopropyl-1H-pyrazol-4-yl)pyrimidin-2-yl)amino)propan-2-yl)carbamate]
solubility at low pH (low pH): higher solubility; also recorded: highly soluble | aqueous solubility at weakly acidic and neutral pH (weakly acidic and neutral pH): limited solubility; also recorded: poor aqueous solubility
